Measured values taken from patent US20070060607A1, “4-amino-thieno[3,2-c] pyridine-7-carboxylic acid derivatives” (priority 2005, published 2007).

Target: T1, c-Raf (Homo sapiens, UniProt P04049)
T1 construct: made in house; host or cells: baculovirus Hi5 insect cells, co-expressed with v-src-FLAG
Experiment: In vitro kinase assay: c-Raf HTRF assay with 6H-MEK as substrate
Type: biochemical
Details: 6H-MEK substrate, dose response
Procedure: In vitro enzyme activity was determined with c-Raf using a HTRF assay with 6H-MEK as substrate (Dose Response).
The assay utilizes 6H-MEK as the substrate. Upon c-Raf phosphorylation, phosphorylated 6H-MEK is detected with rabbit anti-phospho-MEK1/2, Eu-labeled anti-rabbit, and APC-labeled anti-6H antibodies.
c-Raf enzyme was cloned human c-Raf with EE-tag and was phosphorylated (co-expressed with v-src-FLAG in baculovirus Hi5 cells), 0.2 mg/mL (2.74 μM assuming a molecular weight of 73 kD) and stored at −15° C. Wild-type full-length 6H-MEK was used as substrate, 4.94 mg/mL (154.4 μM assuming a MW of 32 kD) and stored at −15° C.
The following antibodies were used in the detection step: Rabbit α-P-(Ser 217/221)-MEK-1/2 Ab (from Cell Signaling, Cat. # 9121S, Lot 4); Eu-α-rabbit IgG (from Wallac, Cat. # AD0083, Lot 107557, labeling date Jun. 21, 2002, 8 Eu/protein, 580 μg/mL, 3.63 μM); α-6H-SureLight-APC (from Martek, Cat. #AD0059H, Lot E011ABO1, 3.15 μM).
Assays were read with Envision from PerkinElmer, HTRF reading mode with 412 mirrors.
Assays were performed with Costar 384 all-black plates, 120 μL (Cat. # 3710).
Test compounds were dispensed in Weidman 384 polypropylene plates (REMP).
Assay Procedure: • Prepare Kinase Assay Buffer (KAB): 50 mM HEPES (HyClone) pH7, 10 mM MgCl2, 1 mM DTT, 0.1 mM […], and 0.2 mg/mL BSA. • Prepare 6H-MEK (150 nM) in KAB. Add 40 μL/well to a Weidman plate. • Prepare ATP (66 μM) in KAB. • Prepare c-Raf (60 nM) in KAB. Add 25 μL/well to a Weidman plate. • Dilute compounds to 2.4 mM in DMSO. Perform 10-point 3× dilution in DMSO. • Withdraw 2.5 ul/well of DMSO solution and add to 27.5 μL/well ATP solution in (3). • Add 12 μL/well 6H-MEK to the assay plate on the Cybiwell, followed by 6 μL/well of solution in (5) and 6 μL/well of solution in (4) for a DMSO concentration of 2.1% during MEK phosphorylation. • Incubate at 37° C. for 30 minutes. • Prepare rabbit α-P-(Ser 217/221)-MEK-1/2 Ab (1:225 from stock) in AB1: 50 mM HEPES pH7, 0.2 mg/mL BSA, and 53 mM EDTA. • To stop reaction, add 6 μL/well of solution from (8) to the assay plate and incubate at 37° C. for 30 minutes. • Prepare Eu-α-rabbit IgG (9 nM) and α-6H-SureLight-APC (120 nM) in AB2: 50 mM HEPES pH7 and 0.2 mg/mL BSA. • Add 6 μL/well of solution from (10) to the assay plate. • For determining the spectrum cross talk factor, prepare 2 samples following steps (6) to (9). For the blank sample, add 6 μL/well of AB2. For the cross talk factor sample, add 6 μL/well of Eu-anti rabbit IgG (9 nM). • Incubate at 37° C. for 1 hour.
Read HTRF signals at 615 nm and 665 nm on the Envision. Normalize HTRF signals after spectrum cross-talk correction.

T1 sequence (P04049 whole entry): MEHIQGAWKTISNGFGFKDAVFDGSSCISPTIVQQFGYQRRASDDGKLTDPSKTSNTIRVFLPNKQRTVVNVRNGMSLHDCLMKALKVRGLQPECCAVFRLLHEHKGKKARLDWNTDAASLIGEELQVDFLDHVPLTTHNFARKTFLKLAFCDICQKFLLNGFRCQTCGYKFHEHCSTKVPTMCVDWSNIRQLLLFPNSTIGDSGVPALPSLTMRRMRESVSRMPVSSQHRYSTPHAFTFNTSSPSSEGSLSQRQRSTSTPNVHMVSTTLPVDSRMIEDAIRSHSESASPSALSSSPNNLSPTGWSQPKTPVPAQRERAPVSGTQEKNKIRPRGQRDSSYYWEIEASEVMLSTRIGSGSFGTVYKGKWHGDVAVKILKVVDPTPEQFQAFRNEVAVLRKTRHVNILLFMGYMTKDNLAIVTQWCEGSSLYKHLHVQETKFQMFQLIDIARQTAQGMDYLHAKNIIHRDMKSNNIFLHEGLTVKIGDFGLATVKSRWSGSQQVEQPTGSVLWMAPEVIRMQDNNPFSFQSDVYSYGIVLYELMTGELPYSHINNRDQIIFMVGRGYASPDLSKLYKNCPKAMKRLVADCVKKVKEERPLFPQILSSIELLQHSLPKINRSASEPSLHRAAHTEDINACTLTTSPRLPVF

IC50	Structure (SMILES)
0.022 µM	Nc1ncc(C(=O)NCCO)c2scc(COc3cccc(OCc4cccc(Cl)c4)c3)c12 [Example 7, 4-Amino-3-[3-(3-chloro-benzyloxy)-phenoxymethyl]-thieno[3,2-c]pyridine-7-carboxylic acid (2-hydroxy-ethyl)-amide]
2.02 µM	CCOC(=O)c1cnc(N)c2c(COc3cccc(OCc4cccc(OC)c4)c3)csc12 [Example 14, 4-Amino-3-[3-(3-methoxy-benzyloxy)-phenoxymethyl]-thieno[3,2-c]pyridine-7-carboxylic acid ethyl ester]
0.836 µM	CCOC(=O)c1cnc(N)c2c(COc3cccc(OCc4ccccc4)c3)csc12 [Example 2, 4-Amino-3-(3-benzyloxy-phenoxymethyl)-thieno[3,2-c]pyridine-7-carboxylic acid ethyl ester]
0.324 µM	CCOC(=O)c1cnc(N)c2c(COc3cccc(OCc4ccc(OC)c(C(F)(F)F)c4)c3)csc12 [Example 18, 4-Amino-3-[3-(4-methoxy-3-trifluoromethyl-benzyloxy)-phenoxymethyl]-thieno[3,2-c]pyridine-7-carboxylic acid ethyl ester]
